What all share (format): functional
The test system of test [1] is Klebsiella pneumoniae. The test can be described thus: Antimicrobial activity against Klebsiella pneumoniae MTCC 109 by agar cup diffusion method.
In test [2] the test system is Escherichia coli. In words: Antimicrobial activity against Escherichia coli MTCC 443 by agar cup diffusion method.
The subject of test [3] is Staphylococcus aureus. In words: Antimicrobial activity against Staphylococcus aureus MTCC 96 by agar cup diffusion method.
The test system of test [4] is Streptococcus pyogenes. The test can be described thus: Antimicrobial activity against Streptococcus pyogenes MTCC 442 by agar cup diffusion method.
Test [5] deals with Penicillium. In words: Antimicrobial activity against Penicillium wild strain by agar cup diffusion method.
In test [6] the test system is Aspergillus clavatus. In words: Antimicrobial activity against Aspergillus clavatus MTCC 1323 by agar cup diffusion method.
For test [7], the system named is Trichophyton rubrum. In words: Antimicrobial activity against Trichophyton rubrum MTCC 296 by agar cup diffusion method.
Test [8] deals with Candida albicans. In words: Antimicrobial activity against Candida albicans MTCC 227 by agar cup diffusion method.

The values that follow come from ChEMBL document CHEMBL3044736, “Synthesis, characterization, solvatochromic properties, and antimicrobial evaluation of 5-acetyl-2-thioxo-dihydro-pyrimidine-4,6-dione-based chalcones” (2013).

Values after ≈ are worked out from the molar mass of the structure shown.

For the molecule `O=C(O)c1cn(C2CC2)c2cc(N3CCNCC3)c(F)cc2c1=O` [CIPROFLOXACIN], the MIC in test [1] stood at 25 µg/mL (≈ 75.4 µM); in test [2] it was 25 µg/mL (≈ 75.4 µM); in test [3], 100 µg/mL (≈ 302 µM); in test [4] it was 50 µg/mL (≈ 151 µM).
As to `COC1=CC(=O)C[C@@H](C)[C@]12Oc1c(Cl)c(OC)cc(OC)c1C2=O` [GRISEOFULVIN], the MIC in test [5] came to 100 µg/mL (≈ 283 µM); in test [6], 100 µg/mL (≈ 283 µM); in test [7] it was 500 µg/mL (≈ 1420 µM); in test [8], 100 µg/mL (≈ 283 µM).

What is called MIC is the lowest concentration found to suppress growth. A higher MIC goes with a need for much substance.
